Source: patent US10463664B2, “Inhibitors of HSV nucleotidyl transferases and uses therefor” (Saint Louis University, priority 2013, dated 2019)
Where two headings read alike, the source gives them in different places.

Legend:
[1] = test system: HSV-1 TK-deficient mutant ΔTK (strain 17); assay: Replication inhibition of thymidine kinase-deficient HSV-1 mutant in Vero cells; assay type: cell-based, herpes simplex virus 1; conditions: 50 μM, 24 h
Experimental: (§1) Cells and Viruses. Vero cells were maintained in Dulbecco's modified Eagle's medium (DMEM) containing 3% newborn calf serum, 3% bovine growth serum, 2 mM L-glutamine and 100 IU/mL penicillin and 0.1 mg/mL streptomycin (P/S). Primary human foreskin fibroblasts (ATCC #CRL2429™) were cultured in DMEM containing 10% FBS, 2 mM L-glutamine plus P/S, and used at passage 3 to 12. HSV-1 #6 and HSV-2 #1 are de-identified clinical isolates from the Saint Louis University Hospital. Stocks were prepared after a single passage in cell culture and were titered by standard plaque assay (Knipe and Spang, 1982). Wild-type HSV-1 and HSV-2 used in FIG. 6 were laboratory strains 17 and 333, respectively. The HSV-1 TK-deficient mutant, ΔTK contains a 361-bp deletion between the BglII-SmaI restriction enzyme sites in the UL23 open reading frame of strain 17 (Korom, et al., 2013). The TK-deficient mutant of HSV-2 strain 333, ΔTK-, contains a 180-bp KpnI-KpnI deletion in the UL23 open reading frame that abrogates TK activity (McDermott, et al, 1984). ΔTK- was the generous gift of Jim Smiley. Virus stocks were grown and titered on Vero cells (Morrison and Knipe, 1996).
(§2) Inhibition of acyclovir-resistant HSV-1 and HSV-2 mutants. […] HSV TK-deficient mutants are therefore insensitive to ACV. […] Vero cells were infected with laboratory strains of HSV-1 or HSV-2 and engineered TK-deficient mutants of the same strains. […] Similar patterns were seen when the compounds were used at 5 μM (FIG. 8B), although inhibition by compound #30 at 5 μM was too low to definitively interpret.

HSV-1 = assay: Topical treatment of mice infected with HSV-1 on the cornea; assay type: in vivo; conditions: for Body weight post-infection: 1 μg three times daily for 5 days
Experimental: Compounds were administered at 1 μg/eye in 10% DMSO. Two mice were treated with 10% DMSO as a negative control. The corneal surface was swabbed once per day on days 1, 2, 4 and 5 post-infection and titer of virus shed from the epithelium was determined by standard plaque assay. On the fifth day post-infection mice were euthanized and the trigeminal ganglia (TG) and brainstems were dissected. The tissues were disrupted and virus in them quantified by plaque assay. […] Weight of individual mice was recorded daily. […] Saline was a negative control. On the fifth day post-infection mice were euthanized and the trigeminal ganglia (TG) and brainstems were dissected. The tissues were disrupted and virus in them quantified by plaque assay.
Body weight was monitored daily post-infection as a sensitive indicator of overall health (FIG. 12).
Infected mice treated with saline served as a negative control.

HCMV strain AD169 = assay: Anti-HCMV CPE inhibition assay (crystal violet) in HFFs; assay type: cell-based, human cytomegalovirus; conditions: 14 days; for EC50: read-out: EC50 against HCMV, CPE inhibition assay
Experimental: (§3) Anti-HCMV CPE inhibition and cytotoxicity assays. HFFs were infected with HCMV strain AD169 in the presence of serial dilutions of the compounds from 0.0192 to 60 μM. Fourteen days later the monolayers were stained with crystal violet, and retained cell density was quantified using a multiplate autoreader (BioTek). Cytotoxicity was measured the same way, except that the cells were uninfected and neutral red internalization by viable cells was measured.
(§4) Antiviral efficacy against HCMV. The ability of select HSV inhibitors to inhibit replication of another major human herpesvirus pathogen, human cytomegalovirus (HCMV) (65) was tested. This was based on the inhibitors strong suppression of HSV-1 and HSV-2 and the prediction that other members of the herpesvirus family would be sensitive to NTS inhibitors due to their shared DNA replication mechanism. Compounds #41, 46, 49, 55, 56, and 59 and the FDA-approved anti-HCMV drug ganciclovir were evaluated with crystal violet CPE and neutral red toxicity assays in HFFs. HFFs were infected with HCMV in the presence of serial dilutions of the compounds that were most inhibitory for HSVs. After 14 days the monolayers were stained and cell density was determined by OD reading. Compound cytotoxicity for uninfected cells was determined in the same manner except that neutral red uptake by viable cells was measured. […] The TI values for the four NTS inhibitors of HCMV ranged from 4 for compound #41 to 38 for #56. Therefore, NTS inhibitors can suppress HCMV replication in addition to inhibiting the HSVs.

HFFs = assay: Neutral red cytotoxicity assay in uninfected HFFs (14 day, with CPE assay); assay type: cell-based, human; conditions: 14 days
Experimental: as §3, §4

[2] = test system: TK-deficient mutant of HSV-2 strain 333, ΔTK-; assay: Replication inhibition of thymidine kinase-deficient HSV-2 mutant in Vero cells; assay type: cell-based, herpes simplex virus 2; conditions: 50 μM, 24 h
Experimental: as §1, §2

[3] = test system: primary human foreskin fibroblasts; assay: in vitro
Experimental: Toxicity Assays. Qualitative assessments of cytotoxicity were done visually by inspecting the cells in the primary screening assays. For the quantitative assays, cells were plated in 96-well plates at 1.0×10^4 per well. The next day the compounds were added at 0.78 to 100 μM in a final concentration of 1% (v/v) DMSO, and the cells were incubated for 24 hours under conditions identical to those employed for the viral replication inhibition assays. Mitochondrial toxicity was measured by incubating the cells with 0.25 mg/mL thiazolyl blue tetrazolium bromide (MTT, SigmaAldrich Chemical Co.), the cultures were incubated for 60 min, metabolites were solubilized in acidic isopropanol, and absorbance was read at 570 nm. Cellular lysis was measured by detecting release of intracellular proteases with the CytoTox-Glo assay (Promega) according to the manufacturer's instructions. Percent viability was determined for each compound concentration from the maximal absorbance or luminosity data, and then CC50 values were calculated by non-linear curve fitting using GraphPad Prism.
Inhibition of viral replication was next assessed in human foreskin fibroblasts (HFF) to determine whether NTS inhibitors could block HSV-1 and HSV-2 replication in a physiologically relevant, primary human cell type. […] Viral yields 24 hours post-infection were measured by plaque assay.

Vero cells = assay: CytoTox-Glo cellular lysis assay in Vero cells; assay type: cell-based; conditions: 24 h; read-out: Vero cell toxicity CTG CC50
Experimental: Quantitative toxicity measurements were conducted for all compounds that suppressed HSV replication by approximately 2 login or more at 5 μM plus a number of compounds with lesser inhibitory activity for comparison. Toxicity was assessed by measuring release of intracellular proteases into the culture medium due to cellular lysis. […] Consistent with the subjective assessments of toxicity, all compounds selected for quantitative toxicity assessment had CC50 values ≥50 μM by both the MTT and cellular lysis assays (Table 1).

[4] = 1 μg/eye once daily, compared with DMSO control
[5] = 7.5 μg/eye three times per day, BALB/c mice, versus saline control

| Compound | Inhibition of TK-mutant HSV-1 (in words) [1] | Body weight post-infection (HSV-1) | Virus in the TG at 5 days post-infection (HSV-1; [4]) | Virus in the brainstem at 5 days post-infection (HSV-1; [4]) | Virus shed in the tear film (HSV-1; [4]) | EC50 against HCMV, CPE inhibition assay (HCMV strain AD169) | EC50 (HCMV strain AD169) [µM] | CC50 (HFFs) [µM] | Inhibition of TK-mutant HSV-2 (in words) [2] | CC50 [3] [µM] | CC50 (Vero cells) [µM] | Titers of virus in the TG on day 5 post-infection (HSV-1; [5]) | Titers of virus in the brainstem on day 5 post-infection (HSV-1; [5]) | EC50 (HCMV strain AD169; Human betaherpesvirus 5, AD169, 336 h) [µM] | CC50, neutral red (HFFs) |
| --- | --- | --- | --- | --- | --- | --- | --- | --- | --- | --- | --- | --- | --- | --- | --- |
| CC(C)c1ccc(O)c(=O)c(O)c1 [Compound 46, Beta-thujaplicinol] | efficiently inhibited | maintained their weight through 8 days post-infection | significantly reduced | significantly reduced | transiently reduced | very low μM range | 1.4 | > 60 | efficiently inhibited | > 100 | > 100 |  |  |  |  |
| Nc1nc2c(ncn2COCCO)c(=O)[nH]1 [ACV, Acyclovir, reference compound] | little effect | maintained their weight through 8 days post-infection | significantly reduced |  | transiently reduced |  |  |  | little effect |  |  | reduced to a similar extent |  |  |  |
| CC(=O)NC(CCc1ccc(Cl)c(Cl)c1)c1cccc(O)c(=O)c1 (stereo not shown) [Compound 55] |  |  |  |  |  |  | > 60 | > 60 |  | > 100 | > 100 |  |  |  |  |
| Cc1cc(C2CCCCC2)n(O)c(=O)c1 [Compound 41, Ciclopirox, reference compound] | efficiently inhibited |  |  |  |  | very low μM range |  |  | efficiently inhibited |  |  | lower | lower | 2.1 | measurable toxicity |
| CC(C)=CCc1ccc(O)c(=O)cc1C(C)C [Compound 49, Nootkatin] |  |  |  |  |  | very low μM range | 1.7 | > 60 |  | > 100 | > 100 |  |  |  |  |
| CCOc1ccc(-c2c3cc(O)c(=O)cc-3oc3cc(O)c(O)cc23)cc1 [Compound 30] | efficiently inhibited |  |  |  |  |  |  |  | efficiently inhibited | > 100 | > 100 |  |  |  |  |
| C=C(C)C1CCc2c(c(C)cc(O)c(=O)c2O)C1 (stereo not shown) [Compound 56, Manicol] |  |  |  |  |  | very low μM range | 38.4 | 38.4 |  | > 100 | ~100 |  |  |  | measurable toxicity |
